Assay results from ChEMBL document CHEMBL4270556, “Current progress on antioxidants incorporating the pyrazole core” (Eur J Med Chem, 2018).

Assays:
[1] = Antioxidant activity assessed as inhibition of lipid peroxidation relative to control; assay type: functional; conditions: dose or concentration not given here
[2] = Antioxidant activity assessed as DPPH radical scavenging activity at 30 to 50 ug/ml relative to control; assay type: functional
[3] = Antioxidant activity assessed as DPPH radical scavenging activity at 10^-3 M relative to control; assay type: functional
[4] = Antioxidant activity assessed as DPPH radical scavenging activity after 20 mins by UV absorbance method relative to control; assay type: functional
[5] = Antioxidant activity assessed as DPPH radical scavenging activity at 10 ug/ml after 20 mins by UV absorbance method relative to control; assay type: functional
[6] = Antioxidant activity assessed as DPPH radical scavenging activity at 4 mM relative to control; assay type: functional
[7] = Antioxidant activity assessed as inhibition of lipid peroxidation; assay type: functional
[8] = Antioxidant activity assessed as hydroxyl radical scavenging activity; assay type: functional
[9] = Antioxidant activity assessed as nitric oxide radical scavenging activity at 100 mM after 150 mins in presence of sodium nitroprusside relative to control; assay type: functional
[10] = Antioxidant activity assessed as ferric ion reducing activity after 20 mins in presence of potassium ferricyanide by FRAP assay relative to control; assay type: functional; design: scale not given: the % may be the effect or the level left
[11] = Antioxidant activity assessed as DPPH radical scavenging activity at 100 mM after 30 mins relative to control; assay type: functional
[12] = Antioxidant activity assessed as DPPH radical scavenging activity at 80 ug/ml relative to control; assay type: functional
[13] = Antioxidant activity assessed as inhibition of DPPH radical at 100 ug/ml relative to control; assay type: functional
[14] = Antioxidant activity assessed as radical scavenging activity at 30 to 50 ug/ml relative to control; assay type: functional
THP-1 = assay: Antioxidant activity in human THP1 cells assessed as inhibition of macrophage-mediated LDL oxidation after 24 hrs in presence of CuSO4 by TBARS assay; assay type: functional, cell-based; conditions: THP-1, 24 h

Q: Which inhibition [1] does the source give for `Cc1c(C)c2c(c(C)c1O)CCC(C)(C(=O)O)O2` (stereo unspecified) here?
A: 64%

Q: For `COc1ccc(C2C(c3ccc(F)cc3)=NN(c3ccccc3)C2C#N)cc1` (stereo unspecified), which Activity [2] is on record?
A: < 60%

Q: For `NS(=O)(=O)c1ccc(N2N=C(c3ccco3)CC2c2cnn(-c3ccccc3)c2)cc1` (stereo unspecified), which Activity [3] is on record?
A: 23%

Q: Which inhibition [1] does the source give for `Cc1ccc(-n2nc(-c3ccccc3)cc2Cn2cnc3c(N4CCOCC4)ncnc32)cc1` here?
A: 99%

Q: What about the Activity [4] of the same molecule?
A: 62 to 79%

Q: Which Activity [5] does the source give for `COc1ccc(C2CC(Cn3c4ccccc4c4nc5cc(Cc6ccc7nc(-c8ccccc8)c(-c8ccccc8)nc7c6)ccc5nc43)=NN2C(=O)c2ccc(Cl)cc2)cc1` (stereo unspecified) here?
A: 59.4%

Q: Which Activity [6] does the source give for `Oc1c(Cl)cc(Cl)cc1C1Nc2ccccc2-c2cc(-c3ccccc3)nn21` (stereo unspecified) here?
A: 99%

Q: With `Cc1ccc(N2N=C(c3ccccc3)CC2Cn2cnc3c(N4CCOCC4)ncnc32)cc1` (stereo unspecified) as the molecule, how does the inhibition [1] read?
A: 5.8%

Q: And the Activity [4]?
A: 43 to 44%

Q: Which IC50 [7] does the source give for `Cc1ccc(-c2cc(C(F)(F)F)nn2-c2ccc(S(N)(=O)=O)cc2)cc1` [CELECOXIB] here?
A: 1990 µM

Q: And the IC50 [8]?
A: 1970 µM

Q: For `O=S(=O)(NC(=S)Nc1ccc(F)cc1)c1ccc(N2N=C(c3ccco3)CC2c2cnn(-c3ccccc3)c2)cc1` (stereo unspecified), which Activity [3] is on record?
A: 27%

Q: Which Activity [3] does the source give for `NS(=O)(=O)c1ccc(N2N=C(c3cccs3)CC2c2cnn(-c3ccccc3)c2)cc1` (stereo unspecified) here?
A: 29%

Q: With `O=C(c1ccccc1)N1N=C(Cn2c3ccccc3c3nc4cc(Cc5ccc6nc(-c7ccccc7)c(-c7ccccc7)nc6c5)ccc4nc32)CC1c1ccc(F)cc1` (stereo unspecified) as the molecule, how does the Activity [5] read?
A: 45.5%

Q: For `c1ccc(C2=NN(c3ccccc3)C(Cn3cnc4c(N5CCCCC5)ncnc43)C2)cc1` (stereo unspecified), which inhibition [1] is on record?
A: 72%

Q: And the Activity [4]?
A: 13 to 24%

Q: Which Activity [9] does the source give for `O=C(/C=C/c1cn(-c2ccccc2)nc1-c1ccccc1)c1cccc(NC(=O)c2ccc(F)cc2)c1` here?
A: 32.4 to 77.9%

Q: And the Activity [10]?
A: 44.4 to 55.5%

Q: And the Activity [11]?
A: 36.8 to 42.3%

Q: For `CCOC(=O)C1=C(N)Oc2c(c(C)nn2C(=O)c2ccncc2)C1c1c(-c2ccccc2)[nH]c2ccc(Cl)cc12` (stereo unspecified), which Activity [12] is on record?
A: 76.7%

Q: For `O=C(/C=C/c1cn(-c2ccccc2)nc1-c1ccc(Br)cc1)c1cccc(NC(=O)c2ccc(F)cc2)c1`, which Activity [9] is on record?
A: 32.4 to 77.9%

Q: What about the Activity [10] of the same molecule?
A: 44.4 to 55.5%

Q: And the Activity [11]?
A: 36.8 to 42.3%

Q: For `O=C(Nc1ccccc1)NS(=O)(=O)c1ccc(N2N=C(c3ccco3)CC2c2cnn(-c3ccccc3)c2)cc1` (stereo unspecified), which Activity [3] is on record?
A: 25%

Q: Which inhibition [13] does the source give for `CCOC(=O)c1c(C)nn(-c2ccccc2)c1-c1ccc([N+](=O)[O-])cc1` here?
A: 22.2 to 49.9%

Q: With `COc1ccc(C2=NN(c3ccccc3)[C@H]3C(=O)N(c4ccccc4)C(=O)[C@@H]23)cc1OC` as the molecule, how does the Activity [14] read?
A: < 55%

Q: With `O=C(c1ccc(Cl)cc1)N1N=C(Cn2c3ccccc3c3nc4cc(Cc5ccc6nc(-c7ccccc7)c(-c7ccccc7)nc6c5)ccc4nc32)CC1c1ccc(Cl)cc1` (stereo unspecified) as the molecule, how does the Activity [5] read?
A: 58.3%

Q: Which Activity [14] does the source give for `O=C1[C@H]2C(c3ccccc3)=NN(c3ccccc3)[C@H]2C(=O)N1c1ccc(Cl)cc1` here?
A: < 40%

Q: With `CCOC(=O)c1sc(Nc2ccccc2)c(-c2nc3c(cnn3-c3ccccc3)c(=O)[nH]2)c1N` as the molecule, how does the Activity read?
A: 92%

Q: With `CC(C)(C)c1cc(C2=NNC(c3cc(C(C)(C)C)c(O)c(C(C)(C)C)c3)C2)cc(C(C)(C)C)c1O` (stereo unspecified) as the molecule, how does the IC50 (THP-1) read?
A: 0.1 µM

Q: For `COc1ccc(-c2nn(-c3ccccc3)cc2/C=C/C(=O)c2cccc(NC(=O)c3ccc(F)cc3)c2)cc1`, which Activity [9] is on record?
A: 32.4 to 77.9%

Q: And the Activity [10]?
A: 44.4 to 55.5%

Q: For `Cc1ccc(-n2nc(-c3ccccc3)cc2Cn2cnc3c(N4CCCCC4)ncnc32)cc1`, which Activity [4] is on record?
A: 62 to 79%

Q: For `NS(=O)(=O)c1ccc(-n2nc(-c3cccs3)cc2-c2cnn(-c3ccccc3)c2)cc1`, which Activity [3] is on record?
A: 12%

Q: Which results are given for `O=C1O[C@H]([C@@H](O)CO)C(O)=C1O`?
A: Activity [9]: 32.3%; Activity: 92.7%; Activity [10]: 42.4%; inhibition [13]: 28.6%; Activity [11]: 43%; Activity [5]: 40%

Q: What does the source list for `Cc1ccc(N2N=C(c3ccccc3)CC2Cn2cnc3c(N4CCCC4)ncnc32)cc1` (stereo unspecified)?
A: inhibition [1]: 49%; Activity [4]: 43 to 44%

Q: For `COc1ccc(C2C(c3ccc(OC)c(OC)c3)=NN(c3ccccc3)C2C#N)cc1` (stereo unspecified), which Activity [2] is on record?
A: 32%

Q: With `Cc1ccc(-n2nc(-c3ccccc3)cc2Cn2cnc3c(N4CCCC4)ncnc32)cc1` as the molecule, how does the inhibition [1] read?
A: 87%

Q: And the Activity [4]?
A: 43 to 44%

Q: With `Cc1ccc(N2N=C(c3ccccc3)CC2Cn2cnc3c(N4CCCCC4)ncnc32)cc1` (stereo unspecified) as the molecule, how does the Activity [4] read?
A: 13 to 24%

Q: For `Nc1n[nH]c(-c2ccccc2)c1-c1nc2c(cnn2-c2ccccc2)c(=O)[nH]1`, which Activity is on record?
A: 92.3%

Q: Which inhibition [13] does the source give for `CCOC(=O)c1c(C)nn(-c2cccc(Cl)c2)c1-c1cccc(Cl)c1` here?
A: 22.2 to 49.9%

Q: Which Activity [2] does the source give for `COc1ccc(C2C(c3ccccc3)=NN(c3ccccc3)C2C#N)cc1` (stereo unspecified) here?
A: < 45%

Q: For `O=C(Nc1ccc(Cl)cc1)NS(=O)(=O)c1ccc(N2N=C(c3ccco3)CC2c2cnn(-c3ccccc3)c2)cc1` (stereo unspecified), which Activity [3] is on record?
A: 16%

Q: With `COc1ccc(C2CC(Cn3c4ccccc4c4nc5cc(Cc6ccc7nc(-c8ccccc8)c(-c8ccccc8)nc7c6)ccc5nc43)=NN2C(=O)c2ccccc2)cc1` (stereo unspecified) as the molecule, how does the Activity [5] read?
A: 50.5%
